Source: PubChem BioAssay (NCI)
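Each compound was tested at five concentrations against cells in 96-well plates for 48 hours. TGI: concentration producing complete growth inhibition.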

Columns and labels:
Assay in all cases: growth of human tumour cells (NCI), 48 h
[1] = tested on: HT29 colon
[2] = tested on: CAKI-1 renal
[3] = tested on: OVCAR-4 ovarian
[4] = tested on: ACHN renal
[5] = tested on: SW-620 colon
[6] = tested on: MALME-3M melanoma
[7] = tested on: NCI-H23 lung
[8] = tested on: OVCAR-5 ovarian
[9] = tested on: SR leukemia
[10] = tested on: OVCAR-8 ovarian
[11] = tested on: SK-MEL-2 melanoma
[12] = tested on: KM12 colon
[13] = tested on: HCT-116 colon
[14] = tested on: SK-MEL-28 melanoma
[15] = tested on: U251 CNS
[16] = tested on: HOP-18 NSCLC
[17] = tested on: K-562 leukemia
[18] = tested on: LOX IMVI melanoma
[19] = tested on: EKVX NSCLC
[20] = tested on: XF 498 CNS
[21] = tested on: SF-268 CNS
[22] = tested on: M19-MEL melanoma
[23] = tested on: SNB-78 CNS
[24] = tested on: DMS 273 small cell lung
[25] = tested on: SF-295 CNS
[26] = tested on: DMS 114 small cell lung
[27] = tested on: CCRF-CEM leukemia
[28] = tested on: UACC-62 melanoma
[29] = tested on: SK-MEL-5 melanoma
[30] = tested on: SNB-19 CNS
[31] = tested on: RXF 393 renal
[32] = tested on: SN12C renal
[33] = tested on: 786-0 renal
[34] = tested on: DLD-1 colon
[35] = tested on: A498 renal
[36] = tested on: IGROV1 ovarian
[37] = tested on: COLO 205 colon
[38] = tested on: TK-10 renal
[39] = tested on: OVCAR-3 ovarian
[40] = tested on: SNB-75 CNS
[41] = tested on: HOP-62 NSCLC
[42] = tested on: HCT-15 colon
[43] = tested on: UACC-257 melanoma
[44] = tested on: NCI-H460 lung
[45] = tested on: A549 NSCLC
[46] = tested on: HOP-92 NSCLC
[47] = tested on: RPMI-8226 leukemia
[48] = tested on: KM20L2 colon
[49] = tested on: SF-539 CNS
[50] = tested on: MDA-N
[51] = tested on: PC-3 prostate
[52] = tested on: M14 melanoma
[53] = tested on: NCI/ADR-RES ovarian
[54] = tested on: NCI-H522 lung
[55] = tested on: MOLT-4 leukemia
[56] = tested on: LXFL 529 NSCLC
[57] = tested on: NCI-H226 lung
[58] = tested on: T-47D breast
[59] = tested on: SK-OV-3 ovarian
[60] = tested on: HL-60(TB) leukemia
[61] = tested on: HS 578T breast
[62] = tested on: MDA-MB-231 breast
[63] = tested on: DU-145 prostate
[64] = tested on: HCC-2998 colon
[65] = tested on: BT-549 breast
[66] = tested on: MDA-MB-435
[67] = tested on: UO-31 renal
[68] = tested on: MCF7 breast

CCC12CCCC(=O)N1C(CO)C(c1ccccc1)O2 (stereo not given)
TGI [1]: > 100 µM
TGI [2]: > 100 µM
TGI [3]: > 100 µM
TGI [4]: > 100 µM
TGI [5]: > 100 µM
TGI [6]: > 100 µM
TGI [7]: > 100 µM
TGI [8]: > 100 µM
TGI [9]: > 100 µM
TGI [10]: > 100 µM
TGI [11]: > 100 µM
TGI [12]: > 100 µM
TGI [13]: > 100 µM
TGI [14]: > 100 µM
TGI [15]: > 100 µM
TGI [16]: > 100 µM
TGI [17]: > 100 µM
TGI [18]: > 100 µM
TGI [19]: > 100 µM
TGI [20]: > 100 µM
TGI [21]: > 100 µM
TGI [22]: > 100 µM
TGI [23]: > 100 µM
TGI [24]: > 100 µM
TGI [25]: > 100 µM
TGI [26]: > 100 µM
TGI [27]: > 100 µM
TGI [28]: > 100 µM
TGI [29]: > 100 µM
TGI [30]: > 100 µM
TGI [31]: > 100 µM
TGI [32]: > 100 µM
TGI [33]: > 100 µM
TGI [34]: > 100 µM
TGI [35]: > 100 µM
TGI [36]: > 100 µM
TGI [37]: > 100 µM
TGI [38]: > 100 µM
TGI [39]: > 100 µM
TGI [40]: > 100 µM
TGI [41]: > 100 µM
TGI [42]: > 100 µM
TGI [43]: > 100 µM
TGI [44]: > 100 µM
TGI [45]: > 100 µM
TGI [46]: > 100 µM
TGI [47]: > 100 µM
TGI [48]: > 100 µM
TGI [49]: > 100 µM

Cc1cc2c3ccccc3n(C)c2c2c1C(=O)C=CC2=O
TGI [1]: 20.5 µM
TGI [2]: 28.9 µM
TGI [3]: 18.7 µM
TGI [50]: 25.5 µM
TGI [4]: 41.7 µM
TGI [51]: 21.5 µM
TGI [5]: 32.8 µM
TGI [6]: 45.7 µM
TGI [52]: 31.9 µM
TGI [7]: 27.4 µM
TGI [8]: 35.4 µM
TGI [53]: > 100 µM
TGI [54]: 31.8 µM
TGI [9]: 38.9 µM
TGI [10]: 62.7 µM
TGI [55]: 46.3 µM
TGI [56]: 8.98 µM
TGI [57]: 42.5 µM
TGI [11]: 37.7 µM
TGI [58]: 19.4 µM
TGI [59]: 53.4 µM
TGI [12]: 33.6 µM
TGI [13]: 39.2 µM
TGI [14]: 42.7 µM
TGI [15]: 32.6 µM
TGI [17]: > 74 µM
TGI [18]: 32.9 µM
TGI [60]: > 68 µM
TGI [19]: 19 µM
TGI [20]: 31.3 µM
TGI [21]: 39.1 µM
TGI [22]: 33.4 µM
TGI [23]: 49.1 µM
TGI [61]: 55.2 µM
TGI [24]: 29.1 µM
TGI [25]: 54.3 µM
TGI [26]: 13 µM
TGI [27]: > 36 µM
TGI [28]: 32.4 µM
TGI [29]: 51.6 µM
TGI [30]: 73 µM
TGI [31]: 20.5 µM
TGI [62]: 32.7 µM
TGI [63]: 44.5 µM
TGI [32]: 35.9 µM
TGI [33]: 13.4 µM
TGI [34]: 27 µM
TGI [64]: 39.8 µM
TGI [35]: 35.5 µM
TGI [65]: 46.4 µM
TGI [36]: 36.8 µM
TGI [37]: 33.6 µM
TGI [66]: 45.2 µM
TGI [38]: 31.2 µM
TGI [39]: 28.3 µM
TGI [67]: 46.4 µM
TGI [40]: 60 µM
TGI [41]: 49.9 µM
TGI [42]: 29.2 µM
TGI [43]: 18.7 µM
TGI [44]: 33.2 µM
TGI [45]: > 77.8 µM
TGI [46]: 25 µM
TGI [47]: 5.47 µM
TGI [49]: 41.9 µM
TGI [68]: 17.5 µM
